Reference: article PMC9298194, “Clinical Pharmacokinetics of Daprodustat: Results of an Absorption, Distribution, and Excretion Study With Intravenous Microtracer and Concomitant Oral Doses for Bioavailability Determination” (Clinical Pharmacology in Drug Development, 2021)
Where two headings read alike, the source gives them in different places.

How the values were obtained:
[1] = Plasma daprodustat pharmacokinetics in healthy male participants (6 mg oral tablet, 50 μg IV microtracer, 25 mg oral solution); assay type: in vivo, human; conditions: for AUC / tmax / Cmax / half-life: plasma daprodustat; for tmax: median (range); for Cmax: arithmetic mean (SD); for half-life: read-out: t½ (converted)
Experimental: On day 1 of treatment period 1, after an overnight fast of at least 8 hours, each participant took a single 6 mg oral dose of daprodustat; participants continued to fast for < 3 hours when a small amount of food was administered to stimulate bile release for the Entero‐Test. After ≈1 hour, participants received 50 μg of [^14C]‐GSK1278863 (≈4.63 kBq; 125 nCi) by IV infusion over 1 hour. Blood samples were collected for 144 hours after oral dosing (until day 7). Participants were discharged on study day 7 after completion of the 144‐hour sample collection. The Entero‐Test was swallowed 3.5 hours before the oral dose of daprodustat (while in the fasted state) and removed 3 hours after the oral dose (about 1 hour after completion of the IV infusion). About 1.5 hours before string withdrawal, a food cue was used to stimulate gallbladder emptying.
On day 1 of treatment period 2, after an overnight fast of at least 8 hours, each participant received 25 mg [^14C]‐GSK1278863 (≈2.31 MBq; 62.5 μCi) as an oral solution; participants continued to fast for 4 hours after dosing.[15] Blood, urine, and fecal samples were collected for a minimum of 144 hours (up to day 7) after dosing, depending on the amount of radioactivity excreted by each participant in excreta collected daily. Liquid scintillation counting (LSC) was performed on these excreta collections on an ongoing basis to assess recovery of the radioactivity dosed. Participants were discharged if ≥90% and <1% of the dose was excreted on both days 6 and 7.
As per standard practice for administration of radiolabeled drug, the IV and oral dosing solutions were analyzed for daprodustat via assessment of the radioactivity and through application of the predetermined specific activity. Whole blood samples were collected for measurement of each of the following: blood total radioactivity in period 2 and plasma total radioactivity in period 1, plasma concentrations of daprodustat, and the 6 predominant circulating metabolites in periods 1 and 2. Blood samples were collected at 1, 3, and 6 hours after dosing for blood assessments. Blood samples were collected for plasma assessments before dosing and at 0.50, 1, 1.25, 1.5, 2, 3, 4, 6, 8, 10, 12, 24, 36, 48, 72, 96, 120, and 144 hours after dosing.
Daprodustat and [^14C]‐GSK1278863 plasma concentrations were measured in treatment period 1: 6 mg daprodustat oral tablet, followed by a 1‐hour IV infusion of 50 μg [^14C]‐GSK1278863, started 1 hour after tablet administration, and in treatment period 2: 25 mg [^14C]‐GSK1278863 oral solution.
Plasma samples from periods 1 and 2 were analyzed for daprodustat and its 6 metabolites by PPD Laboratories using a validated analytical method based on protein precipitation, followed by high‐performance liquid chromatography with tandem mass spectrometric detection analysis, as described previously.[7], [8] Specifically, the lower limit of quantification (LLQ) for this study was 0.100 ng/mL using a 100 μL aliquot of ethylenediaminetetraacetic acid plasma for all 7 analytes. The higher limit of quantification was 100 ng/mL for all 7 analytes. The data accuracy (% bias range: −2.21 to −0.400 to 0.560‐5.85) and precision (% coefficient of variation of 3.99‐7.13) met acceptable limits as recommended by the US Food and Drug Administration in their bioanalytical method validation guidelines.[17] Final PK concentration data for period 1 after 1‐hour samples for daprodustat were further corrected to account for radiolabeled ^14C dose.
Plasma samples collected from period 1 were analyzed for [^14C]‐GSK1278863 by GSK using a validated analytical method, based on protein precipitation, followed by liquid chromatography–AMS analysis. The LLQ was 1.80 pg/mL, using a 600 μL aliquot of human plasma with a higher limit of quantification of 358.92 pg/mL. Accuracy for the 5 validation levels were between −9.2% and 2.2%, and precision was between 2.5% and 10.8%. […]

[2] = coadministered with gemfibrozil; cited from earlier work
[3] = healthy volunteers; cited from earlier work
[4] = 6 mg tablet vs 50 μg IV dose (120-fold dose difference), period 1
[5] = 25 mg oral solution vs 6 mg oral tablet (4.17-fold dose difference)

O=C(O)CNC(=O)C1C(=O)N(C2CCCCC2)C(=O)N(C2CCCCC2)C1=O [Daprodustat]
absolute bioavailability (oral F) ([1]; 6 mg oral tablet, based on AUC0‐inf): 66.1%
fold difference in mean AUC0‐t, oral tablet vs IV [1, 4]: 75.0 fold
fold difference in mean Cmax, oral tablet vs IV [1, 4]: 47.2 fold
fold increase in total exposure (AUC0‐inf), solution vs tablet ([1]; 25 mg oral solution vs 6 mg oral tablet): 4.84 fold
fold increase in mean AUC0‐t, solution vs tablet [1, 5]: 4.84 fold
fold increase in mean Cmax, solution vs tablet [1, 5]: 5.86 fold
Oral F (0‐inf) ([1]; absolute bioavailability, 6 mg oral tablet vs IV microtracer, fraction, mean (SD), n = 3): 0.661 (0.077)
clearance ([1]; male, human, blood, 50 μg, translated from plasma CL after IV administration, read-out: blood CL (converted)): ~250 mL/min
AUC ([1]; male, human, plasma, iv, 50 μg, [14C] 50 μg IV infusion, mean (SD), n = 3, read-out: AUC0‐inf): 2.71 ng·h/mL
AUC ([1]; male, human, plasma, iv, 50 μg, [14C] 50 μg IV infusion, mean (SD), read-out: AUC0‐t): 2.68 ng·h/mL
tmax ([1]; male, human, plasma, iv, 50 μg, [14C] 50 μg IV infusion, read-out: tmax): 1 h
bioavailability ([1]; male, human, plasma, po, 6 mg, 6 mg oral tablet, based on AUC0‐inf, read-out: absolute bioavailability (oral F)): ~66%
AUC ([1]; male, human, plasma, po, 6 mg, 6 mg oral tablet, mean (SD), read-out: AUC0‐inf): 202 ng·h/mL
AUC ([1]; male, human, plasma, po, 6 mg, 6 mg oral tablet, mean (SD), read-out: AUC0‐t): 201 ng·h/mL
tmax ([1]; male, human, plasma, po, 6 mg, 6 mg oral tablet, read-out: tmax): ~2 h
AUC ([1]; male, human, plasma, po, 25 mg, [14C] 25 mg oral solution, mean (SD), read-out: AUC0‐inf): 974 ng·h/mL
AUC ([1]; male, human, plasma, po, 25 mg, [14C] 25 mg oral solution, mean (SD), read-out: AUC0‐t): 972 ng·h/mL
tmax ([1]; male, human, plasma, po, 25 mg, [14C] 25 mg oral solution, read-out: tmax): ~0.5 h
Vd ([1]; male, human, plasma, [14C] 50 μg IV infusion, mean (SD), n = 3, read-out: Vss): 14.6 L
clearance ([1]; male, human, plasma clearance, [14C] 50 μg IV infusion, mean (SD), n = 3, read-out: CL (converted)): 322 mL/min
Cmax ([1]; male, human, 6 mg oral tablet): 97.3 ng/mL
half-life ([1]; male, human, 6 mg oral tablet, mean (SD)): 115 min
Cmax ([1]; male, human, [14C] 50 μg IV infusion over 1 h): 2.06 ng/mL
half-life ([1]; male, human, [14C] 50 μg IV infusion, mean (SD), n = 3): 124 min
Cmax ([1]; male, human, [14C] 25 mg oral solution): 570 ng/mL
half-life ([1]; male, human, [14C] 25 mg oral solution, mean (SD)): 156 min
tmax ([1]; 6 mg oral tablet): 2.12 (1.42−4.00) h
tmax ([1]; [14C] 50 μg IV infusion): 0.983 (0.983−0.983) h
tmax ([1]; [14C] 25 mg oral solution): 0.500 (0.500−0.517) h
increase in the plasma exposure of daprodustat [2]: 18.6 fold
renal clearance [3]: ≈ 0.20 mL/min
